Data reported in patent US11213567B2, “ZAG-derived peptide and use thereof” (L&C Bio Co., LTD., priority 2017, dated 2022).

Experiments:
IL-4 = assay: Atopic dermatitis efficacy test using T lymphocytes: IL-4 released after IL-2, ELISA; type: cell-based, human; set-up: key to T lymphocyte (human) IL-4: •: have statistical significance, determining as effective, compared with the positive control; details: for T lymphocyte (human) IL-4: 1 μg/mL for 24 hours, then IL-2 50 ng/mL 12 hours; for IL-4: Example 2-5, FIG. 2E, compared with positive control (Pos); for IL-4 / IL-4 concentration released in cell culture medium: T lymphocytes, 1 μg/mL 24 hours; for IL-4 concentration released in cell culture medium: Example 1-5, FIG. 1E, IL-2 50 ng/mL 12 hours
Procedure: (§1) To select an amino acid sequence corresponding to a key active site of ZAG having efficacy in the alleviation of atopic symptoms from 18 peptide candidate groups, an atopic dermatitis efficacy test was performed. Five types of immune-related cells were treated with ZAG peptide candidate groups (Z1-Z18, SEQ ID NOs: 1 to 18, respectively) and the ZAG protein (Z0, SEQ ID NOs: 19) at a concentration of 1 μg/mL for 24 hours, and then treated with a stimulator suitable for each cell line for the listed time to confirm an immune response. The experiment was performed with a group treated with only a stimulator as a positive control experimental group, and a group treated with only a vehicle without a stimulator as a negative control experimental group (Table 2: Efficacy test method for atopic dermatitis). An inflammatory response-related enzyme used as a stimulator is produced by immune cells, and histamine initiates an inflammatory response. The immune cells migrating to a damaged region release cytokines such as tumor necrosis factor-α (TNF-α) and interleukin-6 (IL-6) to directly lyse foreign invasive substances or collect other immune cells to initiate an inflammatory response. An efficacy test using inflammation-inducing materials, interferon-γ and skin inflammation-related factor CCL-17/thymus- and activation-regulated chemokine (TARC) was also performed to confirm an immune response.
An atopic dermatitis efficacy test using T lymphocytes was performed with six peptide candidate groups (Z3, Z4, Z5, Z12, Z14, and Z15), which were determined to have efficacy from the results of Examples 1-1 to 1-4 described above. T lymphocytes were treated with 50 ng/mL of IL-2 as a stimulator for 12 hours, and a concentration of IL-4 released in a cell culture medium was confirmed by ELISA assay.
(§2) Various types of immune cells were treated with each of Z20mer-1, Z20mer-2, Z20mer-3, Z15mer-1, Z15mer-2, Z15mer-3 and Z15mer-4 at a concentration of 1 μg/mL for 24 hours, and then treated with a stimulator suitable for each cell line for the listed time to confirm an immune response. The atopic dermatitis efficacy test method was performed by the same method as described in Example 1 and Table 2.
(§3) The experiment was performed with experimental groups: 1) negative control: vehicle-treated group (Neg), 2) positive control: a group treated with only a stimulator (Pos), and 3) experimental group: groups treated with a stimulator and ZAG3 or a ZAG3-derived oligopeptide (Z20mer-1, Z20mer-2, Z20mer-3, Z15mer-1, Z15mer-2, Z15mer-3 or Z15mer-4). Concentrations were measured from cell culture by ELISA.
An experiment was performed on T lymphocytes using the target peptides selected through the previous experiment. As compared with the positive control (Pos), in all of the oligopeptide-treated groups (Z20mer-1, Z20mer-2, Z20mer-3, Z15mer-1, Z15mer-2, Z15mer-3, and Z15mer-4), IL-4 was reduced (FIG. 2E).

IgE = assay: Atopic dermatitis efficacy test using B lymphocytes (RPMI 1788): IgE released after LPS, ELISA; type: cell-based, human; set-up: key: •: have statistical significance, determining as effective, compared with the positive control; details: then LPS 0.1 μg/mL 24 hours
Procedure: as §1
(§4) B lymphocytes (RPMI 1788) were treated with 0.1 μg/mL of LPS as a stimulator for 24 hours, and a concentration of IgE released in a cell culture medium was confirmed by ELISA assay.
as §2, §3
as §4, with “and then” for “and”, “assay. As compared with the positive control (Pos), in all of the oligopeptide-treated groups, IgE was reduced (FIG. 2D).” for “assay.”

Histamine = assay: Atopic dermatitis efficacy test using mast cells (RBL-2H3): histamine released after PMA and A23187, ELISA; type: cell-based, rat; set-up: key: •: have statistical significance, determining as effective, compared with the positive control; details: 1 μg/mL for 24 hours, then PMA 1 μg/mL, A23187 1 μg/mL 12 hours
Procedure: as §1
Mast cells (RBL-2H3) were treated with 1 μg/mL of PMA and 1 μg/mL of A23187 as stimulators for 12 hours, and a concentration of histamine released in a cell culture medium was confirmed by ELISA assay.
as §2, §3
Mast cells (RBL-2H3) were treated with 1 μg/mL of PMA and 1 μg/mL of A23187 as simulators for 12 hours, and then a concentration of histamine released in a cell culture medium was confirmed by ELISA assay. As compared with the positive control (Pos), in all of the oligopeptide-treated groups, the histamine release was reduced (FIG. 2B).

CCL17/TARC = assay: Atopic dermatitis efficacy test using keratinocytes (HaCaT): CCL17/TARC released after TNF-α and IFN-γ, ELISA; type: cell-based, human; set-up: key to HaCaT (human) CCL17/TARC: •: have statistical significance, determining as effective, compared with the positive control; details: Table 3; 1 μg/mL for 24 hours, then TNF-α 0.4 μg/mL, IFN-γ 0.4 μg/mL 24 hours; vs stimulator only
Procedure: as §1
Keratinocytes (HaCaT cells) were treated with 0.4 μg/mL of TNF-α and 0.4 μg/mL of IFN-γ as stimulators for 24 hours, and then a concentration of CCL17/TARC released in a cell culture medium was confirmed by ELISA assay.
as §2, §3

IL-6 = assay: Atopic dermatitis efficacy test using macrophages (RAW 264.7): IL-6 released after LPS, ELISA; type: cell-based, mouse; set-up: key to RAW 264.7 (mouse) IL-6: •: have statistical significance, determining as effective, compared with the positive control; details: for RAW 264.7 (mouse) IL-6: 1 μg/mL for 24 hours, then LPS 0.1 μg/mL 24 hours; for IL-6 concentration released in cell culture medium: Example 2-1, FIG. 2A, RAW 264.7, 1 μg/mL 24 hours, LPS 0.1 μg/mL 24 hours, compared with positive control (Pos)
Procedure: as §1
Macrophages (RAW 264.7 cells) were treated with a stimulator LPS at a concentration of 0.1 μg/mL for 24 hours, and then the concentration of IL-6 released in a cell culture medium was confirmed by ELISA assay.
as §2, §3
Macrophages (RAW 264.7 cells) were treated with a stimulator LPS at a concentration of 0.1 μg/mL for 24 hours, and then a concentration of IL-6 released in a cell culture medium was confirmed by ELISA assay.

[1] = Table 3, 1 μg/mL for 24 hours, vs stimulator only
[2] = Table 5, 1 μg/mL for 24 hours, vs positive control

Substance: Z16: ZAG protein-derived peptide, SEQ ID NO. 16: APGEKKKLKCLAYDFYPGKIDVHWTRAGEV (ZAG protein-derived peptide)
- T lymphocyte (human) IL-4 (IL-4; Table 3, vs stimulator only): •
- B lymphocyte (human) IgE (IgE; [1]): •

Substance: Z1: ZAG protein-derived peptide, SEQ ID NO. 1: QENQDGRYSLTYIYTGLSKHVEDVPAFQAL (ZAG protein-derived peptide)
- RBL-2H3 (rat) Histamine (Histamine; Table 3, vs stimulator only): •
- HaCaT (human) CCL17/TARC (CCL17/TARC): •
- RAW 264.7 (mouse) IL-6 (IL-6; Table 3, vs stimulator only): •

Substance: Z2: ZAG protein-derived peptide, SEQ ID NO. 2: GSLNDLQFFRYNSKDRKSQPMGLWRQVEGM (ZAG protein-derived peptide)
- RBL-2H3 (rat) Histamine (Histamine; Table 3, vs stimulator only): •
- HaCaT (human) CCL17/TARC (CCL17/TARC): •
- RAW 264.7 (mouse) IL-6 (IL-6; Table 3, vs stimulator only): •

Substance: Z17: ZAG protein-derived peptide, SEQ ID NO. 17: QEPELRGDVLHNGNGTYQSWVVVAVPPQDT (ZAG protein-derived peptide)
- RBL-2H3 (rat) Histamine (Histamine; Table 3, vs stimulator only): •
- B lymphocyte (human) IgE (IgE; [1]): •

Substance: Z11: ZAG protein-derived peptide, SEQ ID NO. 11: RKSQPMGLWRQVEGMEDWKQDSQLQKARED (ZAG protein-derived peptide)
- RBL-2H3 (rat) Histamine (Histamine; Table 3, vs stimulator only): •

Substance: Z9: ZAG protein-derived peptide, SEQ ID NO. 9: TYQSWVVVAVPPQDTAPYSCHVQHSSLAQP (listed as Homo sapiens)
- RBL-2H3 (rat) Histamine (Histamine; Table 3, vs stimulator only): •
- RAW 264.7 (mouse) IL-6 (IL-6; Table 3, vs stimulator only): •

Substance: Z15mer-1: ZAG3-derived oligopeptide, SEQ ID NO. 23: EDWKQDSQLQKARED (ZAG protein-derived peptide)
- IL-4 (IL-4): reduced
- T lymphocyte (human) IL-4 (IL-4; Table 5, vs positive control): •
- RBL-2H3 (rat) Histamine (Histamine; Table 5, vs positive control): •
- IL-6 concentration released in cell culture medium (IL-6): significantly decreased
- RAW 264.7 (mouse) IL-6 (IL-6; Table 5, vs positive control): •
- B lymphocyte (human) IgE (IgE; [2]): •

Substance: Z10: ZAG protein-derived peptide, SEQ ID NO. 10: GLSKHVEDVPAFQALGSLNDLQFFRYNSKD (ZAG protein-derived peptide)
- RBL-2H3 (rat) Histamine (Histamine; Table 3, vs stimulator only): •
- HaCaT (human) CCL17/TARC (CCL17/TARC): •
- RAW 264.7 (mouse) IL-6 (IL-6; Table 3, vs stimulator only): •

Substance: Z15mer-2: ZAG3-derived oligopeptide, SEQ ID NO. 24: DSQLQKAREDIFMET (ZAG protein-derived peptide)
- IL-4 (IL-4): reduced
- T lymphocyte (human) IL-4 (IL-4; Table 5, vs positive control): •
- RBL-2H3 (rat) Histamine (Histamine; Table 5, vs positive control): •
- IL-6 concentration released in cell culture medium (IL-6): significantly decreased
- RAW 264.7 (mouse) IL-6 (IL-6; Table 5, vs positive control): •
- B lymphocyte (human) IgE (IgE; [2]): •

Substance: Z20mer-2: ZAG3-derived oligopeptide, SEQ ID NO. 21: DSQLQKAREDIFMETLKDIV (ZAG protein-derived peptide)
- IL-4 (IL-4): reduced
- T lymphocyte (human) IL-4 (IL-4; Table 5, vs positive control): •
- RBL-2H3 (rat) Histamine (Histamine; Table 5, vs positive control): •
- B lymphocyte (human) IgE (IgE; [2]): •

Substance: Z15: ZAG protein-derived peptide, SEQ ID NO. 15: ENNRSSGAFWKYYYDGKDYIEFNKEIPAWV (listed as Homo sapiens)
- IL-4 concentration released in cell culture medium (IL-4): significantly decreased
- RBL-2H3 (rat) Histamine (Histamine; Table 3, vs stimulator only): •

Substance: Z20mer-3: ZAG3-derived oligopeptide, SEQ ID NO. 22: KAREDIFMETLKDIVEYYND (ZAG protein-derived peptide)
- IL-4 (IL-4): reduced
- T lymphocyte (human) IL-4 (IL-4; Table 5, vs positive control): •
- RBL-2H3 (rat) Histamine (Histamine; Table 5, vs positive control): •
- IL-6 concentration released in cell culture medium (IL-6): significantly decreased
- RAW 264.7 (mouse) IL-6 (IL-6; Table 5, vs positive control): •
- B lymphocyte (human) IgE (IgE; [2]): •

Substance: Z13: ZAG protein-derived peptide, SEQ ID NO. 13: CPATLRKYLKYSKNILDRQDPPSVVVTSHQ (ZAG protein-derived peptide)
- HaCaT (human) CCL17/TARC (CCL17/TARC): •
- B lymphocyte (human) IgE (IgE; [1]): •

Substance: Z12: ZAG protein-derived peptide, SEQ ID NO. 12: PFDPAAQITKQKWEAEPVYVQRAKAYLEEE (ZAG protein-derived peptide)
- IL-4 concentration released in cell culture medium (IL-4): significantly decreased
- T lymphocyte (human) IL-4 (IL-4; Table 3, vs stimulator only): •
- HaCaT (human) CCL17/TARC (CCL17/TARC): •
- B lymphocyte (human) IgE (IgE; [1]): •
